Assay results published in the NIST ThermoML archive (doi:10.1016/j.jct.2018.12.018).
Where “and” joins values, the source holds several entries; their conditions need not be identical. Equal values may be shown once.

Experiment: xn = mol fraction of the nth substance listed
Settings: Liquid, x1 = 0.617; for speed of sound: Frequency=3 MHz, Single path-length method; for mass density: Vibrating tube method

CCOC(F)(F)C(F)(C(F)(F)F)C(F)(F)F [nonafluoroisobutyl ethyl ether] + CCOC(F)(F)C(F)(F)C(F)(F)C(F)(F)F
Settings	mass density	speed of sound [m/s]
293.15 K, 100 kPa	1433.9 kg/m3 and 1434.27 kg/m3	637.83
293.15 K, 1000 kPa	1436.6 kg/m3	–
293.15 K, 5000 kPa	1448.2 kg/m3	–
293.15 K, 10000 kPa	1461.3 kg/m3	–
293.15 K, 15000 kPa	1473.4 kg/m3	–
293.15 K, 20000 kPa	1484.5 kg/m3	–
293.15 K, 25000 kPa	1494.8 kg/m3	–
293.15 K, 30000 kPa	1504.7 kg/m3	–
293.15 K, 35000 kPa	1513.9 kg/m3	–
293.15 K, 40000 kPa	1522.5 kg/m3	–
293.15 K, 45000 kPa	1530.8 kg/m3	–
293.15 K, 50000 kPa	1538.7 kg/m3	–
293.15 K, 55000 kPa	1546.3 kg/m3	–
293.15 K, 60000 kPa	1553.5 kg/m3	–
293.15 K, 65000 kPa	1560.5 kg/m3	–
293.15 K, 70000 kPa	1567.2 kg/m3	–
293.15 K, 80000 kPa	1580 kg/m3	–
293.15 K, 90000 kPa	1591.9 kg/m3	–
293.15 K, 100000 kPa	1603.1 kg/m3	–
293.15 K, 110000 kPa	1613.9 kg/m3	–
293.15 K, 120000 kPa	1624 kg/m3	–
293.15 K, 130000 kPa	1633.7 kg/m3	–
293.15 K, 140000 kPa	1642.8 kg/m3	–
298.15 K, 100 kPa	1423.06 kg/m3 and 1422.8 kg/m3	622.13
298.15 K, 1000 kPa	1425.6 kg/m3	–
298.15 K, 5000 kPa	1437.7 kg/m3	–
298.15 K, 10000 kPa	1451.5 kg/m3	–
298.15 K, 15000 kPa	1463.9 kg/m3	–
298.15 K, 20000 kPa	1475.4 kg/m3	–
298.15 K, 25000 kPa	1486.2 kg/m3	–
298.15 K, 30000 kPa	1496.1 kg/m3	–
298.15 K, 35000 kPa	1505.7 kg/m3	–
298.15 K, 40000 kPa	1514.5 kg/m3	–
298.15 K, 45000 kPa	1523 kg/m3	–
298.15 K, 50000 kPa	1531.1 kg/m3	–
298.15 K, 55000 kPa	1538.8 kg/m3	–
298.15 K, 60000 kPa	1546.3 kg/m3	–
298.15 K, 65000 kPa	1553.4 kg/m3	–
298.15 K, 70000 kPa	1560.2 kg/m3	–
298.15 K, 80000 kPa	1573.2 kg/m3	–
298.15 K, 90000 kPa	1585.4 kg/m3	–
298.15 K, 100000 kPa	1596.9 kg/m3	–
298.15 K, 110000 kPa	1607.6 kg/m3	–
298.15 K, 120000 kPa	1618 kg/m3	–
298.15 K, 130000 kPa	1627.8 kg/m3	–
298.15 K, 140000 kPa	1637.2 kg/m3	–
303.15 K, 100 kPa	1411.62 kg/m3	606.46
313.15 K, 100 kPa	1388.53 kg/m3 and 1388.4 kg/m3	575.75
313.15 K, 1000 kPa	1391.8 kg/m3	–
313.15 K, 5000 kPa	1405.6 kg/m3	–
313.15 K, 10000 kPa	1421.1 kg/m3	–
313.15 K, 15000 kPa	1435.1 kg/m3	–
313.15 K, 20000 kPa	1447.8 kg/m3	–
313.15 K, 25000 kPa	1459.5 kg/m3	–
313.15 K, 30000 kPa	1470.6 kg/m3	–
313.15 K, 35000 kPa	1480.8 kg/m3	–
313.15 K, 40000 kPa	1490.3 kg/m3	–
313.15 K, 45000 kPa	1499.5 kg/m3	–
313.15 K, 50000 kPa	1508.1 kg/m3	–
313.15 K, 55000 kPa	1516.4 kg/m3	–
313.15 K, 60000 kPa	1524.3 kg/m3	–
313.15 K, 65000 kPa	1531.9 kg/m3	–
313.15 K, 70000 kPa	1539.2 kg/m3	–
313.15 K, 80000 kPa	1552.9 kg/m3	–
313.15 K, 90000 kPa	1565.7 kg/m3	–
313.15 K, 100000 kPa	1577.6 kg/m3	–
313.15 K, 110000 kPa	1589 kg/m3	–
313.15 K, 120000 kPa	1599.7 kg/m3	–
313.15 K, 130000 kPa	1610 kg/m3	–
313.15 K, 140000 kPa	1619.7 kg/m3	–
323.15 K, 100 kPa	1365.15 kg/m3	545.46
333.15 K, 100 kPa	1341.02 kg/m3 and 1340.7 kg/m3	515.64
333.15 K, 1000 kPa	1344.8 kg/m3	–
333.15 K, 5000 kPa	1361.6 kg/m3	–
333.15 K, 10000 kPa	1380.1 kg/m3	–
333.15 K, 15000 kPa	1396.3 kg/m3	–
333.15 K, 20000 kPa	1410.8 kg/m3	–
333.15 K, 25000 kPa	1424.2 kg/m3	–
333.15 K, 30000 kPa	1436.4 kg/m3	–
333.15 K, 35000 kPa	1447.8 kg/m3	–
333.15 K, 40000 kPa	1458.5 kg/m3	–
333.15 K, 45000 kPa	1468.6 kg/m3	–
333.15 K, 50000 kPa	1478 kg/m3	–
333.15 K, 55000 kPa	1487 kg/m3	–
333.15 K, 60000 kPa	1495.5 kg/m3	–
333.15 K, 65000 kPa	1503.7 kg/m3	–
333.15 K, 70000 kPa	1511.5 kg/m3	–
333.15 K, 80000 kPa	1526.3 kg/m3	–
333.15 K, 90000 kPa	1540 kg/m3	–
333.15 K, 100000 kPa	1552.7 kg/m3	–
333.15 K, 110000 kPa	1564.7 kg/m3	–
333.15 K, 120000 kPa	1576 kg/m3	–
333.15 K, 130000 kPa	1586.8 kg/m3	–
333.15 K, 140000 kPa	1597.2 kg/m3	–
353.15 K, 1000 kPa	1295.2 kg/m3	–
353.15 K, 5000 kPa	1316.1 kg/m3	–
353.15 K, 10000 kPa	1338.1 kg/m3	–
353.15 K, 15000 kPa	1357.1 kg/m3	–
353.15 K, 20000 kPa	1373.9 kg/m3	–
353.15 K, 25000 kPa	1388.9 kg/m3	–
353.15 K, 30000 kPa	1402.6 kg/m3	–
353.15 K, 35000 kPa	1415.3 kg/m3	–
353.15 K, 40000 kPa	1426.8 kg/m3	–
353.15 K, 45000 kPa	1437.9 kg/m3	–
353.15 K, 50000 kPa	1448.2 kg/m3	–
353.15 K, 55000 kPa	1457.9 kg/m3	–
353.15 K, 60000 kPa	1467.2 kg/m3	–
353.15 K, 65000 kPa	1475.9 kg/m3	–
353.15 K, 70000 kPa	1484.5 kg/m3	–
353.15 K, 80000 kPa	1500.2 kg/m3	–
353.15 K, 90000 kPa	1514.8 kg/m3	–
353.15 K, 100000 kPa	1528.3 kg/m3	–
353.15 K, 110000 kPa	1541.1 kg/m3	–
353.15 K, 120000 kPa	1553 kg/m3	–
353.15 K, 130000 kPa	1564.3 kg/m3	–
353.15 K, 140000 kPa	1575.1 kg/m3	–
373.15 K, 1000 kPa	1242.1 kg/m3	–
373.15 K, 5000 kPa	1268.4 kg/m3	–
373.15 K, 10000 kPa	1295.1 kg/m3	–
373.15 K, 15000 kPa	1317.3 kg/m3	–
373.15 K, 20000 kPa	1336.2 kg/m3	–
373.15 K, 25000 kPa	1353.3 kg/m3	–
373.15 K, 30000 kPa	1368.8 kg/m3	–
373.15 K, 35000 kPa	1382.9 kg/m3	–
373.15 K, 40000 kPa	1395.6 kg/m3	–
373.15 K, 45000 kPa	1407.7 kg/m3	–
373.15 K, 50000 kPa	1418.8 kg/m3	–
373.15 K, 55000 kPa	1429.4 kg/m3	–
373.15 K, 60000 kPa	1439.5 kg/m3	–
373.15 K, 65000 kPa	1448.9 kg/m3	–
373.15 K, 70000 kPa	1457.9 kg/m3	–
373.15 K, 80000 kPa	1474.7 kg/m3	–
373.15 K, 90000 kPa	1490.2 kg/m3	–
373.15 K, 100000 kPa	1504.5 kg/m3	–
373.15 K, 110000 kPa	1517.9 kg/m3	–
373.15 K, 120000 kPa	1530.5 kg/m3	–
373.15 K, 130000 kPa	1542.3 kg/m3	–
373.15 K, 140000 kPa	1553.7 kg/m3	–
393.15 K, 1000 kPa	1183.9 kg/m3	–
393.15 K, 5000 kPa	1218.3 kg/m3	–
393.15 K, 10000 kPa	1250.8 kg/m3	–
393.15 K, 15000 kPa	1277 kg/m3	–
393.15 K, 20000 kPa	1299.1 kg/m3	–
393.15 K, 25000 kPa	1318.3 kg/m3	–
393.15 K, 30000 kPa	1335.4 kg/m3	–
393.15 K, 35000 kPa	1350.9 kg/m3	–
393.15 K, 40000 kPa	1365.1 kg/m3	–
393.15 K, 45000 kPa	1378.1 kg/m3	–
393.15 K, 50000 kPa	1390.2 kg/m3	–
393.15 K, 55000 kPa	1401.6 kg/m3	–
393.15 K, 60000 kPa	1412.4 kg/m3	–
393.15 K, 65000 kPa	1422.5 kg/m3	–
393.15 K, 70000 kPa	1432.1 kg/m3	–
393.15 K, 80000 kPa	1450 kg/m3	–
393.15 K, 90000 kPa	1466.2 kg/m3	–
393.15 K, 100000 kPa	1481.5 kg/m3	–
393.15 K, 110000 kPa	1495.5 kg/m3	–
393.15 K, 120000 kPa	1508.7 kg/m3	–
393.15 K, 130000 kPa	1521.1 kg/m3	–
393.15 K, 140000 kPa	1532.1 kg/m3	–
